{
  "source": "patent US4418068A",
  "about": "“Antiestrogenic and antiandrugenic benzothiophenes” (Eli Lilly and Company, priority 1981, dated 1983)",
  "key": {"estrogenic response [1]": {"tested_on": "estrogenic response", "assay": "Estrogenic Response Test, immature rats (uterine weight)", "type": "in vivo, immature 40-45 g. female rats", "method": "(§1) The first test reported below is used to determine the estrogenic potency of compounds. It is well known that many compounds having antiestrogenic activity also, typically, have estrogenic activity. As has been explained, estrogenic activity is a liability in an antiestrogen, and thus it is important to identify antiestrogens having a minimum amount of estrogenic activity. This test was conducted with immature 40-45 g. female rats, immature 11-13 g. mice, and adult ovariectomized mice. The rats were tested in groups of six, and mice in groups of ten. All of the laboratory animals were from standardized strains and were equilibrated to the laboratory before the test started. Each test was begun by administering the test compound daily for three days, as a subcutaneous injection or by oral gavage, as indicated below in the reports of individual experiments. Untreated control animals were included in each experiment, along with animals to which estradiol was administered subcutaneously. The estradiol-treated animals provided positive controls, showing the physiological effect of a potent estrogen on the individual group of animals used in the experiment. […] The test animals were treated for three days and sacrificed on the fourth day, and the uteri were removed, freed of extraneous tissue, and blotted with paper towels. The uteri were weighed to the nearest 0.1 mg. The tables below report the results of representative experiments. The doses of estradiol and of the compound of this invention are given as the total of the three daily doses. The uterine weights are given, in mg., as the means of all of the organ weights of the animals in a group. Compounds are referred to by their example numbers above."}, "estrogenic response [2]": {"tested_on": "estrogenic response", "assay": "Estrogenic Response Test, immature mice (uterine weight)", "type": "in vivo, immature 11-13 g. mice", "conditions": "Experiment D, s.c.", "method": "as §1"}, "[3]": {"tested_on": "estrogenic response of estradiol", "assay": "Antiestrogenic Test, mature ovariectomized mice (uterine weight)", "type": "in vivo, adult ovariectomized mice", "conditions": "Experiment A, s.c. + estradiol 0.3 mcg.", "method": "(§2) This test was conducted with immature 40-45 g. female rats, immature 11-13 g. mice, and adult ovariectomized mice. The rats were tested in groups of six, and mice in groups of ten. All of the laboratory animals were from standardized strains and were equilibrated to the laboratory before the test started. Each test was begun by administering the test compound daily for three days, as a subcutaneous injection or by oral gavage, as indicated below in the reports of individual experiments.\n(§3) The test animals were treated for three days and sacrificed on the fourth day, and the uteri were removed, freed of extraneous tissue, and blotted with paper towels. The uteri were weighed to the nearest 0.1 mg.\n(§4) The uterine weights are given, in mg., as the means of all of the organ weights of the animals in a group. Compounds are referred to by their example numbers above.\n(§5) The same standardized types of laboratory animals which were used in the experiments described above were also used in these experiments. […] Untreated control animals were used in each experiment. […] The dosage and sacrifice schedule, and the method of determining uterine weights and reporting data, were the same as the methods described above under Test 1."}, "[4]": {"tested_on": "estrogenic response of estradiol", "assay": "Antiestrogenic Test, immature mice (uterine weight)", "type": "in vivo", "conditions": "Experiment B, s.c. + estradiol 0.3 mcg.", "method": "as §2, §3, §4, §5"}, "[5]": {"tested_on": "estrogenic response of estradiol", "assay": "Antiestrogenic Test, immature rats (uterine weight)", "type": "in vivo", "method": "as §2, §3, §4, §5"}, "[6]": {"tested_on": "androgen-stimulated prostate growth", "assay": "Anti-Androgen Test, immature male rats (ventral prostate weight)", "type": "in vivo", "method": "The animals used in this test were adult male rats having a body weight which averaged about 330 g. when the experiment ended. All of the animals to be used in the experiment were castrated by the scrotal route, and were held untreated for 3 days. On the fourth day, subcutaneous administration of 0.1 mg./day of an exogenous androgen, testosterone propionate, was begun, and was continued for seven consecutive days. An untreated control group of animals received injections of 0.1 ml./day of corn oil as a blank treatment. The compound of this invention was administered orally or subcutaneously to the treated animals in 0.1 ml. of corn oil, at the same time that the androgen was administered. The animals were sacrificed 24 hours after the last injection of testosterone propionate, the ventral prostate glands were removed and weighed, and the mean of the weights of each treatment group was reported.\nThis experiment was carried out in the same manner as Experiment A above, except that the test animals were immature male rats, weighing about 120 g. each at sacrifice. Each treatment group consisted of six or seven animals. All treatments in this experiment were administered by subcutaneous injection. The amount of the androgen administered was only 20 mcg./day because of the small size of the animals.\nThis experiment was also conducted in immature rats having average body weight of about 115 g. when the experiment ended. In other respects, the experiment was as described under Experiment B above. The treatment groups consisted of ten animals each, except for the androgen only group, of 16 animals, and the 5 mg./kg. group, of nine animals."}},
  "data": [
    {"compound": "O=C(c1ccc(OCCN2CCCCC2)cc1)c1c(-c2ccc(O)cc2)sc2cc(O)ccc12", "note": "[Example 3, 6-hydroxy-2-(4-hydroxyphenyl)-3-[4-(2-piperidinoethoxy)benzoyl]benzo[b]thiophene]", "values": [
      {"measurement": "Uterine weight", "setting": "estrogenic response [1]; Experiment A, total dose 3 mg., s.c.", "value": 33.9, "unit": "mg"},
      {"measurement": "Uterine weight", "setting": "estrogenic response [1]; Experiment A, total dose 3 mcg., s.c.", "value": 47.7, "unit": "mg"},
      {"measurement": "Uterine weight", "setting": "estrogenic response [1]; Experiment A, total dose 30 mcg., s.c.", "value": 38.4, "unit": "mg"},
      {"measurement": "Uterine weight", "setting": "estrogenic response [1]; Experiment A, total dose 300 mcg., s.c.", "value": 35.9, "unit": "mg"},
      {"measurement": "Uterine weight", "setting": "estrogenic response [1]; Experiment B, total dose 3 mcg., oral (first line)", "value": 34.5, "unit": "mg"},
      {"measurement": "Uterine weight", "setting": "estrogenic response [1]; Experiment B, total dose 30 mcg., oral", "value": 34.4, "unit": "mg"},
      {"measurement": "Uterine weight", "setting": "estrogenic response [1]; Experiment B, total dose 300 mcg., oral", "value": 33.2, "unit": "mg"},
      {"measurement": "Uterine weight", "setting": "estrogenic response [1]; Experiment B, total dose printed 3 mcg., oral (last line)", "value": 34.4, "unit": "mg"},
      {"measurement": "Uterine weight", "setting": "estrogenic response [2]; total dose 3 mg.", "value": 14.6, "unit": "mg"},
      {"measurement": "Uterine weight", "setting": "estrogenic response [2]; total dose 0.03 mcg.", "value": 19.0, "unit": "mg"},
      {"measurement": "Uterine weight", "setting": "estrogenic response [2]; total dose 0.3 mcg.", "value": 19.3, "unit": "mg"},
      {"measurement": "Uterine weight", "setting": "estrogenic response [2]; total dose 3 mcg.", "value": 22.9, "unit": "mg"},
      {"measurement": "Uterine weight", "setting": "estrogenic response [2]; total dose 30 mcg.", "value": 23.9, "unit": "mg"},
      {"measurement": "Uterine weight", "setting": "estrogenic response [2]; total dose 300 mcg.", "value": 19.3, "unit": "mg"},
      {"measurement": "Uterine weight", "setting": "[3]; 3 mg.", "value": 21.3, "unit": "mg"},
      {"measurement": "Uterine weight", "setting": "[3]; 0.3 mcg.", "value": 54.9, "unit": "mg"},
      {"measurement": "Uterine weight", "setting": "[3]; 3 mcg.", "value": 48.7, "unit": "mg"},
      {"measurement": "Uterine weight", "setting": "[3]; 30 mcg.", "value": 31.1, "unit": "mg"},
      {"measurement": "Uterine weight", "setting": "[3]; 300 mcg.", "value": 22.1, "unit": "mg"},
      {"measurement": "Uterine weight", "setting": "[4]; 3 mg.", "value": 13.9, "unit": "mg"},
      {"measurement": "Uterine weight", "setting": "[4]; 0.03 mcg.", "value": 41.3, "unit": "mg"},
      {"measurement": "Uterine weight", "setting": "[4]; 0.3 mcg.", "value": 40.6, "unit": "mg"},
      {"measurement": "Uterine weight", "setting": "[4]; 3 mcg.", "value": 26.5, "unit": "mg"},
      {"measurement": "Uterine weight", "setting": "[4]; 30 mcg.", "value": 18.9, "unit": "mg"},
      {"measurement": "Uterine weight", "setting": "[4]; 300 mcg.", "value": 14.6, "unit": "mg"},
      {"measurement": "Uterine weight", "setting": "[5]; Experiment C, 3 mg., oral + estradiol 0.3 mcg., s.c.", "value": 30.6, "unit": "mg"},
      {"measurement": "Uterine weight", "setting": "[5]; Experiment C, 3 mcg., oral + estradiol 0.3 mcg., s.c.", "value": 55.0, "unit": "mg"},
      {"measurement": "Uterine weight", "setting": "[5]; Experiment C, 30 mcg., oral + estradiol 0.3 mcg., s.c.", "value": 46.7, "unit": "mg"},
      {"measurement": "Uterine weight", "setting": "[5]; Experiment C, 300 mcg., oral + estradiol 0.3 mcg., s.c.", "value": 31.3, "unit": "mg"},
      {"measurement": "Uterine weight", "setting": "[5]; Experiment D, 3 mg., s.c. + estradiol 0.3 mcg.", "value": 28.0, "unit": "mg"},
      {"measurement": "Uterine weight", "setting": "[5]; Experiment D, 3 mcg., s.c. + estradiol 0.3 mcg.", "value": 53.6, "unit": "mg"},
      {"measurement": "Uterine weight", "setting": "[5]; Experiment D, 30 mcg., s.c. + estradiol 0.3 mcg.", "value": 33.7, "unit": "mg"},
      {"measurement": "Uterine weight", "setting": "[5]; Experiment D, 300 mcg., s.c. + estradiol 0.3 mcg.", "value": 30.7, "unit": "mg"},
      {"measurement": "Uterine weight", "setting": "[5]; Experiment E, 3 mg., s.c. + estradiol 0.09 mcg.", "value": 31.0, "unit": "mg"},
      {"measurement": "Uterine weight", "setting": "[5]; Experiment E, 3 mcg., s.c. + estradiol 0.09 mcg.", "value": 42.5, "unit": "mg"},
      {"measurement": "Uterine weight", "setting": "[5]; Experiment E, 30 mcg., s.c. + estradiol 0.09 mcg.", "value": 35.8, "unit": "mg"},
      {"measurement": "Uterine weight", "setting": "[5]; Experiment E, 300 mcg., s.c. + estradiol 0.09 mcg.", "value": 33.7, "unit": "mg"},
      {"measurement": "Uterine weight", "setting": "[5]; Experiment F, 3 mg., s.c. + estradiol 0.15 mcg.", "value": 36.2, "unit": "mg"},
      {"measurement": "Uterine weight", "setting": "[5]; Experiment F, 3 mcg., s.c. + estradiol 0.15 mcg.", "value": 49.4, "unit": "mg"},
      {"measurement": "Uterine weight", "setting": "[5]; Experiment F, 30 mcg., s.c. + estradiol 0.15 mcg.", "value": 40.9, "unit": "mg"},
      {"measurement": "Uterine weight", "setting": "[5]; Experiment F, 300 mcg., s.c. + estradiol 0.15 mcg.", "value": 36.5, "unit": "mg"},
      {"measurement": "Uterine weight", "setting": "[5]; Experiment G, 3 mg., s.c. + estradiol 3 mcg.", "value": 30.2, "unit": "mg"},
      {"measurement": "Uterine weight", "setting": "[5]; Experiment G, 3 mcg., s.c. + estradiol 3 mcg.", "value": 71.9, "unit": "mg"},
      {"measurement": "Uterine weight", "setting": "[5]; Experiment G, 30 mcg., s.c. + estradiol 3 mcg.", "value": 42.2, "unit": "mg"},
      {"measurement": "Uterine weight", "setting": "[5]; Experiment G, 300 mcg., s.c. + estradiol 3 mcg.", "value": 33.7, "unit": "mg"},
      {"measurement": "Uterine weight", "setting": "[5]; Experiment H, 3 mg., s.c. + estradiol 30 mcg.", "value": 33.1, "unit": "mg"},
      {"measurement": "Uterine weight", "setting": "[5]; Experiment H, 3 mcg., s.c. + estradiol 30 mcg.", "value": 92.7, "unit": "mg"},
      {"measurement": "Uterine weight", "setting": "[5]; Experiment H, 30 mcg., s.c. + estradiol 30 mcg.", "value": 60.2, "unit": "mg"},
      {"measurement": "Uterine weight", "setting": "[5]; Experiment H, 300 mcg., s.c. + estradiol 30 mcg.", "value": 48.9, "unit": "mg"},
      {"measurement": "Mean Prostate Weight", "setting": "[6]; Experiment B, 0.5 mg./kg./day s.c. + androgen 20 mcg./day", "value": 33.8, "unit": "mg"},
      {"measurement": "average prostate weight, one animal excluded", "setting": "[6]; Experiment B, 0.5 mg./kg./day s.c. + androgen, animal with 54 mg. prostate excluded", "value": 30.5},
      {"measurement": "Mean Prostate Weight", "setting": "[6]; Experiment B, 5 mg./kg./day s.c. + androgen 20 mcg./day", "value": 36.6, "unit": "mg"},
      {"measurement": "Mean Prostate Weight", "setting": "[6]; Experiment C, 0.05 mg./kg./day s.c. + androgen", "value": 34.0, "unit": "mg"},
      {"measurement": "Mean Prostate Weight", "setting": "[6]; Experiment C, 0.5 mg./kg./day s.c. + androgen", "value": 31.1, "unit": "mg"},
      {"measurement": "Mean Prostate Weight", "setting": "[6]; Experiment C, 5 mg./kg./day s.c. + androgen", "value": 29.0, "unit": "mg"}
    ]}
  ]
}
